According to patent US5763212A, “Inhibiting degradation of a degron-bearing protein” (California Institute of Technology, priority 1995, dated 1998):
Residues, ends and D or L forms follow the SMILES beside them.

Test system: Arg-e^K-DHFRha (mouse dihydrofolate reductase with e^K extension and ha epitope, from Ub-Arg-e^K-DHFRha)
Test: Degradation of 35S-labeled N-end rule substrate in ATP-supplemented reticulocyte extract (acid-soluble 35S, SDS-PAGE)
Assay type: biochemical
Conditions: for inhibition of Arg-e^K-DHFRha degradation: FIG. 3A

Row | SMILES | inhibition of Arg-e^K-DHFRha degradation (1 mM Arg-Ala dipeptide, reticulocyte extract) | effect on ubiquitination of Arg-e^K-DHFRha (1 mM Arg-Ala dipeptide, reticulocyte extract, SDS-PAGE) | inhibition of Arg-e^K-DHFRha degradation (20 μM methotrexate, ATP-supplemented reticulocyte extract, 37° C.) | effect on multiubiquitination of Arg-e^K-DHFRha (20 μM methotrexate, ATP-supplemented reticulocyte extract, SDS-PAGE)
1 | C[C@H](NC(=O)[C@@H](N)CCCNC(=N)N)C(=O)O [Arg-Ala] (H-Arg-Ala-OH) | almost completely inhibited | inhibited |  | 
2 | CN(Cc1cnc2nc(N)nc(N)c2n1)c1ccc(C(=O)N[C@@H](CCC(=O)O)C(=O)O)cc1 [methotrexate] |  |  | nearly complete inhibition | enhanced
